Measurements reported in PubChem BioAssay AID248 (DTP/NCI, 2004).
Values joined by “and” are separate entries in the source; they are usually repeats but may differ in a detail not shown here. Equal entries are not always repeated. Toxic doses and inconclusive results are not listed. Cut-off read from the data, not from the text of the source: active = T/C of 150% or more; inactive = T/C below 125%.

Tested on: L1210 leukemia ip in BDF1 mice, survival T/C
Assay: NCI In Vivo Anticancer Drug Screen. Data for tumor model L1210 Leukemia (intraperitoneal) in B6D2F1 (BDF1) mice
Settings: endpoint: mean survival time, higher = longer survival
Summary of the method: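 Read-out is survival time, reported as the treated-group measurement over the vehicle-control measurement.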

[1] = dose: 100.0 mg/kg/injection, schedule: Q04DX002 (ip), vehicle: Klucel (hydroxypropylcellulose) (HPC)
[2] = dose: 200.0 mg/kg/injection, schedule: Q04DX002 (ip), vehicle: Klucel (hydroxypropylcellulose) (HPC)
[3] = dose: 400.0 mg/kg/injection, schedule: Q04DX002 (ip), vehicle: Klucel (hydroxypropylcellulose) (HPC)
[4] = dose: 100.0 mg/kg/injection, schedule: Q04DX003 (ip), vehicle: Klucel (hydroxypropylcellulose) (HPC)
[5] = dose: 200.0 mg/kg/injection, schedule: Q04DX003 (ip), vehicle: Klucel (hydroxypropylcellulose) (HPC)
[6] = dose: 400.0 mg/kg/injection, schedule: Q04DX003 (ip), vehicle: Klucel (hydroxypropylcellulose) (HPC)
[7] = dose: 100.0 mg/kg/injection, schedule: Q04DX003 (ip), vehicle: saline with Tween-80
[8] = dose: 200.0 mg/kg/injection, schedule: Q04DX003 (ip), vehicle: saline with Tween-80
[9] = dose: 400.0 mg/kg/injection, schedule: Q04DX003 (ip), vehicle: saline with Tween-80
[10] = dose: 100.0 mg/kg/injection, schedule: Q01DX009 (ip), vehicle: Klucel (hydroxypropylcellulose) (HPC)
[11] = dose: 200.0 mg/kg/injection, schedule: Q01DX009 (ip), vehicle: Klucel (hydroxypropylcellulose) (HPC)
[12] = dose: 400.0 mg/kg/injection, schedule: Q01DX009 (ip), vehicle: Klucel (hydroxypropylcellulose) (HPC)

Measured: T/C

SCc1ccccn1
inactive: dose: 30.0 mg/kg/injection, schedule: Q01DX015 (ip), vehicle: saline 103 % of control | dose: 60.0 mg/kg/injection, schedule: Q01DX015 (ip), vehicle: saline 94 % of control | dose: 100.0 mg/kg/injection, schedule: Q01DX001 (ip), vehicle: saline 107 % of control | dose: 120.0 mg/kg/injection, schedule: Q01DX015 (ip), vehicle: saline 120 % of control | dose: 200.0 mg/kg/injection, schedule: Q01DX001 (ip), vehicle: saline 107 % of control | dose: 240.0 mg/kg/injection, schedule: Q01DX015 (ip), vehicle: saline 111 % of control | dose: 400.0 mg/kg/injection, schedule: Q01DX001 (ip), vehicle: saline 107 % of control | dose: 400.0 mg/kg/injection, schedule: Q01DX015 (ip), vehicle: saline 90 % of control

CCOc1ccc([N+](=O)[O-])cc1
inactive: [1] 100 % of control | [2] 91 % of control | [3] 103 % of control

Cn1[nH]c(=O)c2ccccc2c1=O
inactive: dose: 8.2 mg/kg/injection, schedule: Q04DX003 (ip), vehicle: Klucel (hydroxypropylcellulose) (HPC) 104 % of control | dose: 12.5 mg/kg/injection, schedule: Q04DX003 (ip), vehicle: Klucel (hydroxypropylcellulose) (HPC) 109 % of control and 120 % of control | dose: 18.0 mg/kg/injection, schedule: Q04DX003 (ip), vehicle: Klucel (hydroxypropylcellulose) (HPC) 108 % of control | dose: 25.0 mg/kg/injection, schedule: Q04DX003 (ip), vehicle: Klucel (hydroxypropylcellulose) (HPC) 97 % of control | dose: 50.0 mg/kg/injection, schedule: Q04DX003 (ip), vehicle: Klucel (hydroxypropylcellulose) (HPC) 110 % of control | [4] 106 % of control | [5] 106 % of control | [6] 103 % of control

COc1ccc(OC)c2[nH]c(=O)c(-c3ccccc3)nc12
inactive: [7] 97 % of control | [8] 95 % of control | [9] 91 % of control

CCN(C(=O)Nc1cccc(Cl)c1)c1ccccc1C
inactive: [7] 93 % of control | [8] 88 % of control

O=C1OC(=O)C2C3C=CC3C12 (configuration not stated)
inactive: [1] 95 % of control | [2] 100 % of control | [3] 92 % of control

CC(C)CCOC(=O)c1ccccc1OC(=O)Nc1ccc(Cl)cc1[N+](=O)[O-]
inactive: dose: 100.0 mg/kg/injection, schedule: Q01DX001 (ip), vehicle: saline with Tween-80 102 % of control | dose: 100.0 mg/kg/injection, schedule: Q01DX009 (ip), vehicle: saline with Tween-80 99 % of control and 89 % of control | dose: 100.0 mg/kg/injection, schedule: Q04DX002 (ip), vehicle: saline with Tween-80 94 % of control and 103 % of control | [7] 91 % of control | dose: 200.0 mg/kg/injection, schedule: Q01DX001 (ip), vehicle: saline with Tween-80 90 % of control | dose: 200.0 mg/kg/injection, schedule: Q01DX009 (ip), vehicle: saline with Tween-80 86 % of control and 89 % of control | dose: 200.0 mg/kg/injection, schedule: Q04DX002 (ip), vehicle: saline with Tween-80 97 % of control and 88 % of control | [8] 91 % of control | dose: 400.0 mg/kg/injection, schedule: Q01DX001 (ip), vehicle: saline with Tween-80 88 % of control | dose: 400.0 mg/kg/injection, schedule: Q01DX009 (ip), vehicle: saline with Tween-80 89 % of control | dose: 400.0 mg/kg/injection, schedule: Q04DX002 (ip), vehicle: saline with Tween-80 100 % of control and 104 % of control | [9] 99 % of control

O=C(O)CCCOc1cc(Cl)c(Cl)cc1Cl
inactive: dose: 50.0 mg/kg/injection, schedule: Q01DX001 (ip), vehicle: carboxymethylcellulose (CMC) 88 % of control | dose: 50.0 mg/kg/injection, schedule: Q01DX009 (ip), vehicle: gum acacia 98 % of control | dose: 50.0 mg/kg/injection, schedule: Q04DX003 (ip), vehicle: gum acacia 96 % of control | dose: 100.0 mg/kg/injection, schedule: Q01DX001 (ip), vehicle: carboxymethylcellulose (CMC) 88 % of control | dose: 100.0 mg/kg/injection, schedule: Q01DX009 (ip), vehicle: gum acacia 100 % of control | dose: 100.0 mg/kg/injection, schedule: Q04DX003 (ip), vehicle: gum acacia 96 % of control | dose: 200.0 mg/kg/injection, schedule: Q01DX009 (ip), vehicle: gum acacia 93 % of control | dose: 200.0 mg/kg/injection, schedule: Q04DX003 (ip), vehicle: gum acacia 104 % of control

CCCCC/C(=N/NC(N)=O)C(OC)OC
inactive: dose: 100.0 mg/kg/injection, schedule: Q01DX001 (ip), vehicle: other 92 % of control | dose: 200.0 mg/kg/injection, schedule: Q01DX001 (ip), vehicle: other 92 % of control | dose: 400.0 mg/kg/injection, schedule: Q01DX001 (ip), vehicle: other 97 % of control

CC(=O)c1ccc(Nc2ccnc3cc(Cl)ccc23)cc1
inactive: dose: 75.0 mg/kg/injection, schedule: Q01DX001 (ip), vehicle: other 109 % of control | dose: 150.0 mg/kg/injection, schedule: Q01DX001 (ip), vehicle: other 96 % of control | dose: 300.0 mg/kg/injection, schedule: Q01DX001 (ip), vehicle: other 91 % of control

CC(=N)Oc1ccccc1
inactive: dose: 75.0 mg/kg/injection, schedule: Q01DX001 (ip), vehicle: Klucel (hydroxypropylcellulose) (HPC) 101 % of control | dose: 150.0 mg/kg/injection, schedule: Q01DX001 (ip), vehicle: Klucel (hydroxypropylcellulose) (HPC) 106 % of control | dose: 300.0 mg/kg/injection, schedule: Q01DX001 (ip), vehicle: Klucel (hydroxypropylcellulose) (HPC) 102 % of control

COc1cc(Nc2nc(N)ncc2N)cc(OC)c1OC
inactive: [7] 95 % of control | [8] 98 % of control | [9] 92 % of control

C=C(Cl)CSC(C)(C)C
inactive: dose: 100.0 mg/kg/injection, schedule: Q01DX009 (ip), vehicle: saline 118 % of control | dose: 100.0 mg/kg/injection, schedule: Q04DX002 (ip), vehicle: saline 100 % of control | dose: 200.0 mg/kg/injection, schedule: Q01DX009 (ip), vehicle: saline 100 % of control | dose: 200.0 mg/kg/injection, schedule: Q04DX002 (ip), vehicle: saline 97 % of control | dose: 400.0 mg/kg/injection, schedule: Q01DX009 (ip), vehicle: saline 93 % of control | dose: 400.0 mg/kg/injection, schedule: Q04DX002 (ip), vehicle: saline 93 % of control

CCCCCCCCCCCCCCCCCC(=O)N/N=C/c1ccc(Cl)cc1
inactive: [10] 101 % of control and 88 % of control | [11] 102 % of control | [12] 98 % of control and 92 % of control

COC(=O)C(c1ccccc1)C(Br)C(=O)c1ccccc1 (configuration not stated)
inactive: [10] 86 % of control | [4] 97 % of control | [11] 86 % of control | [5] 102 % of control | [12] 86 % of control | [6] 95 % of control

COc1ccc(OCCCCCCCCCCBr)cc1
inactive: dose: 100.0 mg/kg/injection, schedule: Q04DX002 (ip), vehicle: other 101 % of control | dose: 200.0 mg/kg/injection, schedule: Q04DX002 (ip), vehicle: other 96 % of control | dose: 400.0 mg/kg/injection, schedule: Q04DX002 (ip), vehicle: other 93 % of control
